Test results reported in US5393740A, “Neurotensin Hexapeptides” (Tsumura & Co., priority 1991, dated 1995).
*1 amine or outer side, *2 acyl side, *3 side chain or, on linkers, in order; H or OH if unused. Where a SMILES comes first, the peptide text is derived from it. [ ]: non-standard residue; d: D form. X2 = CCCCN([C@@H](CCCNC(=N)N)C(=O)[*:2])[*:1]; Leu(ol) = CC(C)C[C@H](N)CO

Columns and labels:
[1] = biological target: thrombin (Homo sapiens, UniProt P00734); experiment: Protease inhibition action (thrombin, synthetic coloring base S-2238); type: biochemical; settings: thrombin final conc. 10 U/ml, preincubated at 37° C. for 5 minutes, S-2238 37° C. 15 minutes, 405 nm
Method: Each of peptides Nos. 1, 31 to 34 was mixed at various volume with thrombin (final conc. 10 U/ml), and the resultant mixture was preincubated at 37° C. for 5 minutes. A synthetic coloring base (Test Team^R S-2238 available from Daiichi Kagaku Yakuhin) was added to the above preincubated mixture and was reacted at 37° C. for 15 minutes.
2% citric acid was added to the above mixture to stop the reaction. Hydrolysis was performed using residual thrombin, and free p-nitroaniline removed from the synthetic coloring base was subjected to colorimetric determination at a wavelength of 405 nm, thereby obtaining the inhibition capability with reference to 0.1M tris buffer. On the base of the inhibition capability thus obtained, a concentration of the peptides when each peptide inhibited the activity of thrombin with 50%, i.e. IC50 was calculated.

[2] = tested on: ddY mice; experiment: Acute toxicity test; type: in vivo, mouse; settings: intravenous injection, 2,000 times (64 μmol/kg) the effective amount
Method: An acute toxicity test of peptides Nos. 1, 31 and 32 of the present invention was performed by using, ddY mice. […] No toxic expression was therefore observed.

[3] = tested on: Sprague-Dawley (SD) rats; experiment: Vascular permeability acceleration suppression action (hot-water leg edema); type: in vivo, rat; settings: suppression of rate of increase in leg volume vs control; 1 ml/kg into femoral vein 10 minutes before dipping leg in 58° C. hot water for one minute; male SD rats
Method: After 6-week male Sprague-Dawley (SD) rats (each group consisted of 10 rats) were fed for a week, they were used in this experiment.
The concentrations of samples of the hexapeptides (peptide Nos. 1 to 30) were dissolved by an acetic acid buffer solution added with a 1% bovine serum albumin (BSA).
An aliqrot of 1 ml/kg of each of the peptides Nos. 1 to 30 was injected into the femoral vein of the right leg of each rat anesthetized with 50 mg/kg of Nembutal Sodium (available from Dainippon Pharmaceutical Co., Ltd.). After 10 minutes, the nontreated left leg of the rat was dipped in 58° C. hot water for one minute to form an edema. Each rat was left at room temperature for 29 minutes, and the volumes of both legs of each rat were measured. As a control, the experiment following the same procedure as describe above was performed except that 1 ml/kg of a sodium acetate buffered solution containing 1% BSA instead of the hexapeptide of the present invention was injected in rats.
A rate (%) of increase in leg volume was calculated from the result of the above measurement by equation (1) below: [formula]
The rates were compared with that of the control.
- X: rate of increase in leg volume (%) of the present invention.
Xo: rate of increase in leg volume (%) of the control

[4] = tested on: Hybrid grown-up dogs; experiment: Anti-DIC action (platelet number after endotoxin); type: in vivo, dog
Method: Hybrid grown-up dogs (each group consisted of six dogs) were used in this experiment. 30 mg/kg of pentobarbital were intravenously injected to anesthetize each dog. Intravenous injection of 32 nmol/kg of each of peptides Nos. 1, 31 and 32 was performed. After 30 minutes, 3 mg/kg of an endotoxin derived from Escherichia Coli were intravenously injected while the artificial respiration was performed with air.
Samples of blood were collecting from each dog immediately before the injection of the peptides and 120 minutes after the injection of the endotoxin.
As a control, a experiment was performed according to same procedure as described above except that the hexapeptides was not injected.
The number of platelets is the number per 1 mm^3 (1 μl) of the blood in Table 7.

[5] = tested on: SD rats; experiment: Wound healing action (traction tension of skin wound); type: in vivo, rat; settings: skin wound stripe, eighth day; 32 nmol/kg i.v. once a day for 8 days; male SD rats; control 456.2 ± 21.6
From the text: The male SD rats (each group consisted of 10 rats) were anesthetized with ether and shaved in the back of the each rat, and the anesthetized portion was formed by a length of 30 mm along the median line by using a degreased, sterilized razor blade. The wound was immediately sutured at three equidistant positions, and the stitches were taken out after three days. The rats were subjected to hemorrhage to death in the eighth day, and the skins were peeled from the rats.
A skin stripe having a size of 1 cm×4 cm was formed from a wounded portion of each rat. Both ends of this stripe were set in a wound curing measurement tensile test instrument (TK-251 available from Unicom), and a tensile force (traction tension: g/cm) required to cut the wound portion was measured.
Each hexapeptide compound according to the present invention was dissolved in an acetic acid buffer solution added with 1% BSA and was intravenously injected to each rat for 8 days (once a day) from the date of wound formation. As a control, 1 ml/kg of the sodium acetat buffered solution added with 1% BSA instead of the hexapeptide solutions was injected according to same procedure as described above.

[6] = tested on: ICR mice; experiment: Anti-shock action (endotoxin-induced lethality); type: in vivo, mouse; settings: 32 nmol/kg × 4 intravenously, endotoxin (LPS E. coli 0127B8) 10 mg/kg i.v. after 10 minutes; male ICR mice; control 80
Method: In this experiment, male ICR mice (each group consisted of 10 mice) each having a weight of 25 g to 35 g were used. Each of peptides Nos. 1, 31 and 32 was dissolved in a sodium acetate buffered solution (pH 6.0) added with 1% BSA or in a physiological saline.
An endotoxin to induce a shock was obtained by dissolving Lipopolysaccharide [E. coli; 0127B8 (Difco)] in a physiological saline.
Each of peptialdes Nos. 1, 31 and 32 was intravenously injected at a by dose of 5 ml/kg to each mouse, and the endotoxin with concentration of 10 mg/kg was intravenously injected at a dose of 5 ml/kg after 10 minutes. The lethal rates (%) of these mice within 24 hours were measured. As a control, 5 ml/kg of the sodium acetate buffered solution added with 1% BSA was injected instead of the hexapeptide of the present invention.

[7] = tested on: Wister rats; experiment: Anti-allergic action (passive cutaneous anaphylaxis reaction); type: in vivo, rat; settings: PCA reaction, 32 nmol g/kg i.v. 10 minutes before provocation, control 188.3 ± 9.71
Method: In this experiment, 6-week, male Wister rats (each group consisted of 10 rats) were used, and the back of these rats were shaved.
An anti-egg albumin rat serum was diluted with a saline to forty-fold of its volume, thereby obtaining an anti-egg albumin rat serum solution. 1 ml of the anti-egg albumin rat serum solution was intradermally injected to both side parts against the median line in the shaved portion, thereby sensitizing passively the rats. After 48 hours, 1 ml of a 0.5% Evans blue solution containing 10 mg of a egg-albumin was intravenously injected to the each rat, thereby provocating a passive cutaneous anaphylaxis (PCA) reaction.
After 30 minutes, the rats were decapitated, thereby subjecting to hemorrhage to death. The skins were peeled from the rats, and a long diameter and a short diameter of a blue stained portions caused by the PCA reaction in each rat were measured, and area of the blue-stained portions were calculated on the base of the obtained data.
In these operations, the of peptides Nos. 1, 31 and 32 were dissolved in a sodium acetate buffered solution containing 1% BSA and was intravenously injected to each rat at 10 minutes before the provocation of the PCA reaction. As a control, the sodium acetate buffer solution containing 1% BSA instead of the peptide solutions was injected according to same procedure as described above.

[8] = tested on: Wistar rats; experiment: Anti-edematous action (freezing-induced vascular cerebral edema); type: in vivo, rat; settings: left cerebral cortex, 32 nmol/kg i.v. 10 minutes before and 20 minutes after the freezing, male Wistar rats, control 81.4
Method: In this experiment, 8-week male Wistar rats were used, and peptides Nos. 1, 31 and 32 dissolved in a saline added with 1% BSA were used.
Iron column whose diameter was 5 mm cooled by dryice acetone was placed on the left epidural portion of each rat to cause a vascular cerebral edema. Freezing was performed to form an injured portion after an hour, and the brain of each rat was taken out. The brain was divided into right and left cerebral cortices, and weights of the left cerebral cortices were measured. The left cerebral cortices was dried at 105° C. for 24 hours, and weights of the dried left cerebral cortices were measured to obtain water contents (%). In this operations, the peptides Nos. 1, 31 and 32 were intravenously injected at the concentration shown in Table 6 to each rat 10 minutes before and 20 minutes after the freezing. As a control, 1 ml/kg of the saline added with 1% BSA instead of the peptides was injected into rat according to same procedures as described above.

Molecule	IC50 [1]	acute toxicity (death) [2]	further results
CC[C@H](C)[C@H](NC(=O)[C@H](Cc1ccc(O)cc1)NC(=O)[C@@H]1CCCN1C(=O)[C@H](CCCNC(=N)N)NC(=O)CCCCNC(=N)N)C(=O)N[C@@H](CC(C)C)C(=O)O [Peptide No. 1, Desamino-Arg--Arg--Pro--Tyr--Ile--Leu--OH]	2500 nM	No mice were dead	–
Desamino-Arg-D-Lys--Pro--Trp--Ile-Leucinol [Peptide No. 23]	–	–	Suppression Rate (%) [3]: 20.8%
CC[C@H](C)[C@H](NC(=O)[C@H](Cc1ccc(O)cc1)NC(=O)[C@@H]1CCCN1C(=O)[C@H](CCCNC(=N)N)NC(=O)[C@H](CCCNC(=N)N)NC(C)=O)C(=O)N[C@H](CO)CC(C)C [Peptide No. 31, N-acetyl--Arg--Arg--Pro--Tyr--Ile-Leucinol]	2300 nM	No mice were dead	–
CCCCN[C@@H](CCCNC(=N)N)C(=O)N[C@@H](CCCNC(=N)N)C(=O)N1CCC[C@H]1C(=O)N[C@@H](Cc1ccc(O)cc1)C(=O)N[C@H](C(=O)N[C@H](CO)CC(C)C)[C@@H](C)CC [Peptide No. 33, N-buthyl--Arg--Arg--Pro--Tyr--Ile--Leucinol] (H-[X2]RPYI[Leu(ol)])	2300 nM	–	–
CC[C@H](C)[C@H](NC(=O)[C@H](Cc1ccc(O)cc1)NC(=O)[C@@H]1CCCN1C(=O)[C@H](CCCNC(=N)N)NC(=O)[C@H](CCCNC(=N)N)NC(C)=O)C(=O)N[C@@H](CC(C)C)C(N)=O [Peptide No. 32, N-acetyl--Arg--Arg--Pro--Tyr--Ile--Leu--NH2]	2200 nM	No mice were dead	Average Number of Platelets 120 Minutes after Venous Injection of Endotoxin ([4]; 32 nmol/kg i.v. 30 minutes before 3 mg/kg E. coli endotoxin i.v., control 43 × 10^4): 58 × 10^4 per 1 mm^3 (1 μl) of the blood; Average Number of Platelets Immediately before Injection Endotoxin ([4]; 32 nmol/kg i.v., baseline sample, control 72 × 10^4): 71 × 10^4 per 1 mm^3 (1 μl) of the blood; Traction Tension [5]: 547.0 ± 32.3 g/cm; Lethal rate within 24 hours (%) [6]: 20%; Area of blue-stained portion (mm^2) [7]: 112.8 ± 4.83 mm^2; Water Content (%) [8]: 80.6%
